Experiment [1] relates to human keratinocytes (HaCaTs). The experiment in a line: Differentiation, migration and invasion of epithelial cells under β-glucan single treatment. It is filed as cell-based. The following applies: 0.5% β-glucan among 0 to 10%; FIG. 1. As to the method:
(§1) The differentiation, migration and invasion of epithelial cells, such as human keratinocytes, and the differentiation of fibroblasts according to the single treatment of β-glucan were examined. β-glucan was produced by QUEGEN BIOTECH Co., LTD and used. Human dermal fibroblasts and human keratinocytes were purchased from Korean Cell Line Bank and used. The human dermal fibroblasts (HDFs) or the human keratinocytes (HaCaTs) were seeded in a 6-well plate containing […] of 10% FBS-containing DMEM at 1×10^4 cells/well (HDF) and 5×10^4 cells/well (HaCaT), and cultured under conditions of 37° C. and 5% CO2. During culture, the concentration of the epithelial cells (HaCaTs) and the fibroblasts were treated with 200 μL of β-glucan to have a concentration of 0 to 10% in a concentration dependent manner.

A further experiment relates to HaCaTs and HDFs. Kind of experiment: Proliferation and migration in Transwell HaCaT/HDF co-culture by composition of mixed solution. It is filed as cell-based, human. The following applies: with respect to control PBS, 24 hours. As to the method: 5×10^4 cells/well of HaCaTs were seeded in the upper part and 1×10^4 cells/well of HDFs were seeded in the lower part of a Transwell invasion kit, […] of 10% FBS-containing DMEM and the three kinds of test solutions were treated and incubated under conditions of 37° C. and 5% CO2 for 24 hours, followed by determining an optimal concentration condition.

The subject of experiment [2] is human dermal fibroblasts (HDFs). Kind of experiment: Differentiation of fibroblasts under β-glucan single treatment. It is filed as cell-based. The note with it: β-glucan 0 to 10%; FIG. 1. Here is the method: as §1

In the case of β-glucan, in experiment [1], the “differentiation, migration and invasion of epithelial cells by concentration” value is recorded as “optimal results”. Further, the “Migration (%)” value in the experiment on HaCaTs and HDFs (0.1%) worked out at 110%; in the experiment with HaCaTs and HDFs (0.25%), 130%; in the experiment with HaCaTs and HDFs (0.5%) it was 151%; in the experiment with HaCaTs and HDFs (0.7%), 153%; with HaCaTs and HDFs (1.0%), 161%; in the experiment with HaCaTs and HDFs (1.5%), 110%. The “Proliferation (%)” value with HaCaTs and HDFs (0.1%) is 105%; in the experiment on HaCaTs and HDFs (0.25%), 111%; in the experiment with HaCaTs and HDFs (0.5%), 120%; in the experiment on HaCaTs and HDFs (0.7%) it was 125%; in the experiment on HaCaTs and HDFs (1.0%), 122%; in the experiment with HaCaTs and HDFs (1.5%), 118%. Moreover, the “differentiation of the fibroblasts” value in experiment [2] is on record as “no significant change”.
